Results published in patent publication US20240279684A1, “CYTOSOLIC DELIVERY OF GENOME EDITING TOOLS” (SAPREME TECHNOLOGIES B.V., priority 2021, published 2024).
Entries after “also recorded” stand apart in the source; their conditions may differ.

Key:
Neuro-2A-cells = assay: Puromycin selection after knock-in of the GFP-Puromycin-LDS; type: cell-based, murine
From the text: FIG. 12A, B. Puromycin selection after Knock-In of the GFP-Puromycin-LDS. After the knock-out of solute carrier Slc26a4 and integration of GFP-Puromycin-Donor sequence, the cells were cultivated for seven passages until Puromycin selection was started. Different concentrations of Puromycin were applied and the cell viability was observed (A, B). […] Plate wells in rows A-C are numbered 1-4 from left to right. Wells C3-4 were empty.
Subsequent to the co-transfection of Cas9-gRNA-Plasmid and LDS in the presence of GE1741, a Puromycin-mediated selection enabled the isolation of transfected cells and facilitates the identification of donor sequence integration into the genome. For this purpose, different Puromycin concentrations were applied to the transfected cells, in the presence of GE1741. The optimal puromycin concentration should optimally kill non-transfected/non-resistant cells, while sparing cells, which received the resistance through the donor sequence.

[1] = tested on: cells with which the nanoplexes are contacted; assay: Toxicity of saponin towards cells during transfection; type: cell-based
From the text: It is part of the invention that the method or the use of the invention is characterized in that the nanoparticle comprises the nanoparticle-forming compound, such as a peptide, such as poly-lysine, and the nucleic acid in a mass ratio in a range of 3:1 to 15:1, preferably in a range of 3:1 to 9:1. Typically, the nanoparticle-forming compound is a poly-lysine peptide such as K16 peptide. Preferred is the method wherein the nucleic acid is a plasmid DNA, at least encoding for a Cas, preferably Cas9 (SEQ ID NO: 1), and optionally also encoding for the gRNA, and wherein the nanoparticles comprise in addition to the plasmid DNA at least one poly-lysine peptide, preferably poly-lysine K16 peptide (poly-lysine peptide consisting of sixteen lysine residues). Alternatively, the poly-lysine peptide is a peptide consisting of 8-25 lysine residues, preferably 10-20, more preferably 12-18. High in vitro transfection efficiency is obtained with the method of the invention when nanoparticles encompassing plasmid DNA, K16 peptide are prepared and applied, and are contacted with cells in the presence of a saponin selected from GE1741 and SO1861, and preferably the saponin is GE1741. Typically, the saponin concentration during transfection of the plasmid DNA into selected target cells in vitro is 1 μg/mL-5 μg/mL, preferably 2-4 μg/mL. […] Cells are typically contacted with a composition comprising the nanoplexes and a separate composition comprising the saponin, preferably GE1741. Thus, typically, the nanoparticles comprise the poly-lysine peptide and the nucleic acid, for example at least a plasmid DNA encoding for a Cas, preferably Cas9 (SEQ ID NO: 1), or a Cas with at least 90% sequence identity with this Cas9, preferably 90-99.5% sequence identity, such as 92%, 93%, 94%, 95% or 95-99%.

Neuro-2A cells = assay: Transfection efficiency of PD-nanoplexes with/without saponin, flow cytometry (GFP); type: cell-based, murine
Protocol: (§1) After biophysical characterisation had established that nanoplexes of the large plasmid DNA and the poly-lysine peptide were formed, cell experiments were performed: transfections. […] Without wishing to be bound by any theory, the latter effect is most likely due to insufficient complexing of DNA. […] JIMT-1-cells (DSMZ no.: ACC 589) and Neuro-2A- cells (DSMZ no.: ACC 148) were transfected with nanoplexes containing relatively large Cas9-GFP-plasmid, with and without GE1741-Co-application or SO1861-Co-application at a non-toxic concentration, when the cell which is to be transfected is considered. The transfection efficiency of all transfection conditions was measured after 48 h incubation time using flow cytometry by comparison to the negative control in terms of fluorescence intensity (for example, cells contacted with the nanoparticles in the absence of saponin). The efficiency of GE1741-based transfections and SO1861-based transfections was also compared with efficiency of Lipofectamine3000™-based transfection of the nanoparticles. Transfections were performed according to protocols commonly known and applied in the field (Clochard et al., 2020; Sama et al., 2018a; Sama et al., 2017; Sama et al., 2018b). […] Transfection efficiency of GE1741-mediated PD-transfection and SO1861-mediated PD-transfections on Neuro-2A cells and JIMT-1 cells was assessed. Cells were transfected with Cas9-GFP-DNA containing PD-nanoplexes, with and without GE1741 or SO1861 (final concentration of the saponin was 2 μg/ml). In Neuro-2A cells and JIMT-1 cells transection efficiency varied between 30% and 40%. Lipofectamin3000 served as reference. n≥3; a significant difference compared to the GE1741-free transfections or SO1861-free transfections was apparent, U-test, p≤0.05.
FIG. 4A, B. Transfection efficiency of saponin-mediated PD (Cas9-GFP)-transfections on Neuro-2A cells (FIG. 4A) and on JIMT-1-cells (FIG. 4B). Neuro-2A cells (A) and JIMT-1 cells (B) were transfected with GFP-DNA (i.e. a plasmid comprising the GFP DNA) bearing PD-nanoplexes or with Cas9-GFP-DNA bearing PD-nanoplexes, with and without the highest non-toxic saponin Co-administration (GE1741 Co-administration at 2 μg/ml or SO1861 Co-administration at 2 μg/ml). While GFP-DNA-transfections reached high efficiencies of around 70%, approximately 40% of all cells expressed GFP after Cas9-GFP-transfection. […] N≥3; *: significant difference compared to the saponin-free transfection (only nuclease), U-test.
JIMT-1-cells (human breast carcinoma) and Neuro-2A-cells (murine neuroblastoma) were transfected with nanoplexes, containing Cas9-GFP-plasmid, with and without saponin GE1741-co-application or saponin SO1861-co-application (that is to say, the saponin is added to the cell culture together with the addition of the nanoparticles comprising the nucleic acid that is to be transfected in the presence of the saponin), in a non-toxic concentration when the saponins are considered. The mass ratios for the peptide and the nucleic acid (plasmid DNA) in the nanoparticles were selected considering the dynamic light scattering (DLS) measurements and considering the aforementioned earlier assessed toxicity and earlier performed efficiency studies. The transfection efficiency of all transfection conditions was measured after 48 h incubation time via flow cytometry by comparison to the negative control in terms of fluorescence intensity (FIG. 4). […]

JIMT-1 cells = assay: as above; type: cell-based, human; details: GFP-DNA PD-nanoplexes, saponin 2 μg/ml
Protocol: as §1, with “Cells were transfected with Cas9-GFP-DNA containing PD-nanoplexes, with and without GE1741 or SO1861 (final concentration of the saponin was 2 μg/ml). In Neuro-2A cells and JIMT-1 cells transection efficiency varied between 30% and 40%. Lipofectamin3000 served as reference. n≥3; a significant difference compared to the GE1741-free transfections or SO1861-free transfections was apparent, U-test, p≤0.05.” left out

| Compound | effect on cells (selection) (Neuro-2A-cells; 0.5 μg/mL) | effect on cells (selection) (Neuro-2A-cells; 1 μg/mL) | effect on cells (selection) (Neuro-2A-cells; 2 μg/mL) | effect on cells (selection) (Neuro-2A-cells; 2-3 μg/mL) | highest non-toxic saponin Co-administration ([1]; Neuro-2A and JIMT-1 transfections) | toxic activity towards the cells ([1]; saponin concentration of 1 μg/mL-5 μg/mL, applied together with the nanoplexes) | transfection efficiency (cells expressing GFP) (Neuro-2A cells; GFP-DNA PD-nanoplexes, saponin 2 μg/ml, Neuro-2A) | transfection efficiency compared with Lipofectamine3000 (Neuro-2A cells; nanoplexes of relatively large DNA plasmid and poly-lysine, saponin present) | transfection efficiency (cells expressing GFP) (JIMT-1 cells) |
| --- | --- | --- | --- | --- | --- | --- | --- | --- | --- |
| COc1ccc(C[C@H](N)C(=O)N[C@H]2[C@@H](O)[C@H](n3cnc4c(N(C)C)ncnc43)O[C@@H]2CO)cc1 [Puromycin] | no significant effect | incomplete selection; also recorded: decrease of confluence | decrease of confluence | diminished nearly all cells | – | – | – | – | – |
| CC(=O)OC1C(C)OC(OC2C(C)OC(OC(=O)[C@]34CCC(C)(C)CC3C3=CCC5[C@@]6(C)CC[C@H](OC7OC(C(=O)O)C(O)C(OC8OCC(O)C(O)C8O)C7OC7OC(CO)C(O)C(O)C7O)[C@@](C)(C=O)C6CC[C@@]5(C)C3(C)CC4O)C(OC3OC(C)C(OC4OCC(O)C(OC5OC(CO)C(O)C(O)C5O)C4O)C(O)C3O)C2O)C(O)C1OC1OCC(O)C(O)C1O (stereo partly drawn) [SO1861] | – | – | – | – | 2 µg/mL | not exhibiting toxic activity | around 70% | higher than obtainable with current gold standard Lipofectamine3000™ | around 70% |
